According to BindingDB's records for doi:10.1016/j.bioorg.2012.01.003 (Institute For Advanced Studies In Basic Sciences (Iasbs), 2012):

Target: Acetylcholinesterase (Electrophorus electricus, UniProt O42275)
Assay: Inhibition Assay
Conditions: pH 8; 25 °C
Protocol: Inhibitory activity of synthesized alpha-unreidophosphonates were determined at 25 C by the colorimetric method of Ellman et al.

Acetylcholinesterase, sequence (O42275 whole entry): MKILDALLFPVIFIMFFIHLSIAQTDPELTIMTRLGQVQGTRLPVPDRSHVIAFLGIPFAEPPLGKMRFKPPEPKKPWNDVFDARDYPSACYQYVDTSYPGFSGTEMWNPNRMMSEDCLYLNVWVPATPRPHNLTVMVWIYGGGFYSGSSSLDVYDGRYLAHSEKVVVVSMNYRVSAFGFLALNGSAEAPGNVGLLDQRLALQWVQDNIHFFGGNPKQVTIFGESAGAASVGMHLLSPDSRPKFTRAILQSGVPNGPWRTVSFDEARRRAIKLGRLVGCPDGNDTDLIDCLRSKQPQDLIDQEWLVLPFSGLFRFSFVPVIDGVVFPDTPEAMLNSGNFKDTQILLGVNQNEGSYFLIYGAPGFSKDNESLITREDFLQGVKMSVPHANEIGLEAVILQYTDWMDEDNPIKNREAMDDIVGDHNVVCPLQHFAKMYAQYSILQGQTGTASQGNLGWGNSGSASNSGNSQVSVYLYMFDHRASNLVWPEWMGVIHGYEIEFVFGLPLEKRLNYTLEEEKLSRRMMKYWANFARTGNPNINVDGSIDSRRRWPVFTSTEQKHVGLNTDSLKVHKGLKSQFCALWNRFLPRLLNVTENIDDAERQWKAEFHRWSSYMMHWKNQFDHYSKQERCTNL

## CCOP(=O)(OCC)C(c1ccccc1)N(C(=O)Nc1ccccc1)c1ccccc1 (stereo not drawn) [Alpha-ureidophosphonate, a]
  IC50: 172 µM

## CCOP(=O)(OCC)C(c1ccc(C(C)C)cc1)N(C(=O)Nc1ccccc1)c1ccccc1 (stereo not drawn) [Alpha-ureidophosphonate, b]
  IC50: 230 µM

## CCOP(=O)(OCC)C(c1ccc([N+](=O)[O-])cc1)N(C(=O)Nc1ccccc1)c1ccccc1 (stereo not drawn) [Alpha-ureidophosphonate, d]
  IC50: 811 µM

## CCOP(=O)(OCC)C(c1ccc(C)cc1)N(C(=O)Nc1ccccc1)c1ccccc1 (stereo not drawn) [Alpha-ureidophosphonate, e]
  IC50: 441 µM

## CCOP(=O)(OCC)C(c1ccc(F)cc1)N(C(=O)Nc1ccccc1)c1ccc(OC)cc1 (stereo not drawn) [Alpha-ureidophosphonate, g]
  IC50: 69.3 µM

## CCOP(=O)(OCC)C(c1ccc(C)cc1)N(Cc1ccccc1)C(=O)Nc1ccccc1 (stereo not drawn) [Alpha-ureidophosphonate, i]
  IC50: 2.23 µM

## CCOP(=O)(OCC)C(c1ccc(C)cc1)N(C(=O)Nc1ccccc1)C1CCCCC1 (stereo not drawn) [Alpha-ureidophosphonate, k]
  IC50: 148 µM
